In patent publication US10597388B2, “Pyridazinone herbicides” (FMC CORPORATION, priority 2014, dated 2020):
Where two headings read alike, the source gives them in different places.

Experiments:
Type in all cases: in vivo
[1] = tested on: crabgrass, large (large crabgrass, Digitaria sanguinalis); assay: Test A greenhouse herbicide test, pre- and postemergence; details: 240 h; for pest or weed control at 1000 g/ha: 1000 g ai/ha; for pest or weed control at 1000 g/ha / pest or weed control at 500 g/ha: 0 to 100 scale; for pest or weed control at 125 g/ha: 125 g ai/ha; for pest or weed control at 500 g/ha: 500 g ai/ha
In short: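 Visual injury ratings, 0 (no effect) to 100 (complete control), versus untreated plants after roughly 10 d in a greenhouse. Compounds, formulated in a surfactant-containing non-phytotoxic solvent, were sprayed on loam–sand soil after sowing (pre) or on one- to two-leaf plants 2–10 cm tall (post).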

[2] = tested on: radish, wild (wild radish, Raphanus raphanistrum); assay: Test D controlled growth environment herbicide test, pre- and postemergence
In short: (§1)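 Rating is visual, 0–100 scale (100 = complete control), made against untreated plants 14–21 d after treatment in controlled growth conditions. Postemergence sprays went onto 1- to 4-leaf plants in peat medium; preemergence sprays onto silt loam after sowing; formulation included a surfactant.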

[3] = tested on: wild poinsettia (Euphorbia heterophylla); assay: Test E greenhouse herbicide test, pre- and postemergence
In short: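 For each species, sown seed in silt loam and young plants (2 to 18 cm) in a peat/vermiculite medium were each treated with compound dissolved in surfactant-containing, non-phytotoxic solvent. After 14 to 21 d under greenhouse conditions, effects were visually rated, 100 meaning complete control.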

[4] = tested on: Canada thistle (Cirsium arvense); assay: Test D controlled growth environment herbicide test, pre- and postemergence; details: for Canada Thistle plant response rating / Plant response rating (scale of 0 to 100), Canada Thistle: 31 g ai/ha
In short: as §1

[5] = tested on: geranium, cutleaf (cutleaf geranium, Geranium dissectum); assay: as above
In short: as §1

[6] = post-emergence, Postemergence, 0 is no effect, 100 is complete control, read-out: Crabgrass, Large plant response rating
[7] = pre-emergence, Preemergence, 0 no effect, 100 complete control, read-out: Plant response rating, Crabgrass, Large
[8] = Postemergence, 31 g ai/ha, scale 0 to 100 (0 no effect, 100 complete control)
[9] = Postemergence, 125 g ai/ha, visual rating on scale 0 (no effect) to 100 (complete control), 14 to 21 d
[10] = Postemergence, 250 g ai/ha, scale 0 to 100 (0 no effect, 100 complete control)
[11] = Preemergence, 62 g ai/ha, scale 0 to 100 (0 no effect, 100 complete control)
[12] = Preemergence, 125 g ai/ha, scale 0 to 100 (0 no effect, 100 complete control)
[13] = Preemergence, 250 g ai/ha, scale 0 to 100 (0 no effect, 100 complete control)
[14] = postemergence, 62 g ai/ha, scale 0 to 100, 0 no effect, 100 complete control
[15] = 62 g ai/ha, Postemergence, scale 0 to 100 (0 no effect, 100 complete control)
[16] = 62 g ai/ha, Preemergence, scale 0 to 100 (0 no effect, 100 complete control)
[17] = 125 g ai/ha, Postemergence, scale 0 to 100 (0 no effect, 100 complete control)
[18] = 125 g ai/ha, Preemergence, scale 0 to 100 (0 no effect, 100 complete control)
[19] = 250 g ai/ha, Postemergence, scale 0 to 100 (0 no effect, 100 complete control)
[20] = Postemergence, 16 g ai/ha, visual, scale 0 no effect to 100 complete control
[21] = Postemergence, 31 g ai/ha, visual, scale 0 no effect to 100 complete control
[22] = Preemergence, 31 g ai/ha, scale 0 to 100, 0 no effect, 100 complete control
[23] = Preemergence, 250 g ai/ha, visual, scale 0 no effect to 100 complete control
[24] = Postemergence, scale 0 to 100 (0 no effect, 100 complete control)

SMILES	Radish, Wild plant response rating [2, 8]	Plant response rating, Radish, Wild [2, 9]	Plant response rating, Radish, Wild [2, 10]	Plant response rating (scale of 0 to 100), Radish, Wild ([2]; Preemergence, 31 g ai/ha)	Plant response rating, Radish, Wild [2, 12]	Plant response rating, Radish, Wild [2, 13]	Plant response rating, Radish, Wild [2, 14]	Plant response rating, Poinsettia, Wild [3, 15]	Plant response rating, Poinsettia, Wild [3, 17]	Plant response rating, Poinsettia, Wild [3, 18]	Plant response rating, Poinsettia, Wild [3, 19]	Plant response rating, Poinsettia, Wild [3, 21]	Plant response rating, Poinsettia, Wild [3, 22]	Plant response rating, Poinsettia, Wild [3, 23]	Canada Thistle plant response rating [4, 24]	Plant response rating, Canada Thistle [4, 9]	Plant response rating, Canada Thistle [4, 10]	Plant response rating (scale of 0 to 100), Canada Thistle ([4]; Preemergence)	Plant response rating, Canada Thistle [4, 11]	Plant response rating, Canada Thistle [4, 12]	other results
Cc1ccc2sc(C)c(-c3c(O)c(C)nn(C)c3=O)c2c1 [Compound 1, 4-(2,5-dimethylbenzo[b]thien-3-yl)-5-hydroxy-2,6-dimethyl-3(2H)-pyridazinone]	10	30	60	0	15	100	20	15	15	30	35	10	30	35	–	–	–	–	–	–	pest or weed control at 1000 g/ha [1, 6]: 90%; pest or weed control at 1000 g/ha [1, 7]: 90%; Plant response rating, Radish, Wild [2, 11]: 0; Plant response rating, Poinsettia, Wild [3, 16]: 30; Plant response rating, Poinsettia, Wild [3, 20]: 5; Plant response rating, Poinsettia, Wild ([3]; Preemergence, 16 g ai/ha, scale 0 to 100, 0 no effect, 100 complete control): 20
Cc1nn(C)c(=O)c(-c2c(C)oc3c(C)cccc23)c1O [Compound 9, 4-(2,7-dimethyl-3-benzofuranyl)-5-hydroxy-2,6-dimethyl-3(2H)-pyridazinone]	–	–	–	–	–	–	–	–	–	–	–	–	–	–	–	–	–	–	–	–	pest or weed control at 125 g/ha ([1]; post-emergence, Postemergence, visual rating after approx. 10 d, 0 to 100 scale (0 no effect, 100 complete control), read-out: Plant response rating, Crabgrass, Large): 10%; pest or weed control at 500 g/ha [1, 6]: 50%; pest or weed control at 125 g/ha ([1]; pre-emergence, Preemergence, 0 to 100 scale where 0 is no effect and 100 is complete control, read-out: Crabgrass, Large plant response rating): 20%; pest or weed control at 500 g/ha [1, 7]: 90%
CC(=O)Oc1c(C)nn(C)c(=O)c1-c1c(C)cc(C)c2ccccc12 [Compound 153]	80	100	100	80	98	100	85	30	50	60	75	20	40	75	98	100	100	100	100	100	Plant response rating, Canada Thistle [4, 13]: 100; Plant response rating, Canada Thistle [4, 14]: 98; Geranium, Cutleaf plant response rating [5, 8]: 75; Plant response rating, Geranium, Cutleaf [5, 9]: 90; Plant response rating, Geranium, Cutleaf [5, 10]: 98; Plant response rating (scale of 0 to 100), Geranium, Cutleaf ([5]; Preemergence, 31 g ai/ha): 35; Plant response rating (scale of 0 to 100), Geranium, Cutleaf ([5]; Preemergence, 62 g ai/ha): 75; Plant response rating, Geranium, Cutleaf [5, 12]: 85; Plant response rating, Geranium, Cutleaf [5, 13]: 90; Plant response rating, Geranium, Cutleaf [5, 14]: 90; Plant response rating (scale of 0 to 100), Radish, Wild ([2]; Preemergence, 62 g ai/ha): 98; Plant response rating, Poinsettia, Wild ([3]; Preemergence, scale 0 to 100, 0 no effect, 100 complete control): 50
CC(=O)Oc1c(Br)nn(C)c(=O)c1-c1c(C)ccc2ccccc12 [Compound 129]	60	80	98	80	100	100	75	–	–	–	–	–	–	–	100	100	100	80	100	100	Plant response rating, Canada Thistle [4, 13]: 100; Plant response rating, Canada Thistle [4, 14]: 100; Geranium, Cutleaf plant response rating [5, 8]: 60; Plant response rating, Geranium, Cutleaf [5, 9]: 75; Plant response rating, Geranium, Cutleaf [5, 10]: 75; Plant response rating (scale of 0 to 100), Geranium, Cutleaf ([5]; Preemergence, 31 g ai/ha): 0; Plant response rating (scale of 0 to 100), Geranium, Cutleaf ([5]; Preemergence, 62 g ai/ha): 0; Plant response rating, Geranium, Cutleaf [5, 12]: 70; Plant response rating, Geranium, Cutleaf [5, 13]: 95; Plant response rating, Geranium, Cutleaf [5, 14]: 70; Plant response rating (scale of 0 to 100), Radish, Wild ([2]; Preemergence, 62 g ai/ha): 100
CC(=O)Oc1c(C)nn(C)c(=O)c1-c1ccc(F)c2ccccc12 [Compound 90]	65	75	95	0	90	95	75	50	60	–	–	35	–	–	98	100	98	50	95	100	Plant response rating, Canada Thistle [4, 13]: 100; Plant response rating, Canada Thistle [4, 14]: 100; Geranium, Cutleaf plant response rating [5, 8]: 45; Plant response rating, Geranium, Cutleaf [5, 9]: 75; Plant response rating, Geranium, Cutleaf [5, 10]: 95; Plant response rating (scale of 0 to 100), Geranium, Cutleaf ([5]; Preemergence, 31 g ai/ha): 0; Plant response rating (scale of 0 to 100), Geranium, Cutleaf ([5]; Preemergence, 62 g ai/ha): 60; Plant response rating, Geranium, Cutleaf [5, 12]: 65; Plant response rating, Geranium, Cutleaf [5, 13]: 90; Plant response rating, Geranium, Cutleaf [5, 14]: 65; Plant response rating (scale of 0 to 100), Radish, Wild ([2]; Preemergence, 62 g ai/ha): 65; Plant response rating, Poinsettia, Wild [3, 20]: 20
COC(=O)Oc1c(C)nn(C)c(=O)c1-c1c(C)sc2c(C)cc(C)cc12 [Compound 81]	75	95	100	0	–	–	90	40	40	30	50	30	0	60	–	–	–	–	–	–	Plant response rating, Radish, Wild [2, 11]: 50; Plant response rating, Poinsettia, Wild [3, 16]: 5
